From patent US20230081720A1, “MCL-1 INHIBITOR ANTIBODY-DRUG CONJUGATES AND METHODS OF USE” (NOVARTIS AG, priority 2019, published 2023) come the findings set out here.

For test [1], the target named is Mcl-1 protein (Homo sapiens, UniProt Q07820). In words: Inhibition of Mcl-1 by fluorescence polarization (FP). Format: binding. The settings on record: fluorescein-labelled ligand 1 nM, Mcl-1 protein 5 nM.
Method: The relative binding potency of each compound was determined via Fluorescence Polarization (FP).
An 11-point serial dilution of each compound was prepared in DMSO and 2 PI transferred into flat bottomed, low binding, 384-well plate (final DMSO concentration 5%). 38 μl of buffer (10 mM 4-(2-hydroxyethyl)-1-piperazineethanesulfonic acid [HEPES], 150 mM NaCl, 0.05% Tween 20, pH 7.4), containing the fluorescein-labelled ligand (final concentration 1 nM) and Mcl-1 protein (final concentration 5 nM) was then added.
Test [2] relates to NCI-H929 multiple myeloma cell line. Briefly: In vitro cytotoxicity, Microculture Tetrazolium Assay (MTT). Format: cell-based. The settings on record: NCI-H929 cells, 48 hours.
Method: Cytotoxicity studies were carried out on the NCI-H929 multiple myeloma cell line. The cells were distributed onto microplates and exposed to the test compounds for 48 hours.
Test [3] concerns EOL1 human acute myeloid (eosinophilic) leukemia xenograft model. In words: EOL1 xenograft, CD74-ADCs Fc silent with different linker payloads (Example 15). The format is in vivo, mice. The following applies: for T/C (%): day 10; for ΔTumor volume (mm^3): day 10, mean. The procedure: To optimize the linker payload, efficacy of 6 CD74-ADCs with different linker payloads (L5-P1, L30-P1, L31-P1, L32-P1, L33-P1 and L34-P1) was evaluated in the EOL1 model in vivo.
EOL1 luciferase transfected cells were cultured at 37° C. in an atmosphere of 5% CO2 in air in RPM11640 (BioConcept Ltd. Amimed) supplemented with 10% FCS (BioConcept Ltd. Amimed, #2-01 F30-1), 2 mM L-glutamine (BioConcept Ltd. Amimed, #5-10K00-H) and 1 mM sodium pyruvate (BioConcept Ltd. Amimed, #5-60F00-H), 10 mM HEPES (Gibco #11560496). To establish EOL1 xenografts cells were harvested and re-suspended in HBSS (Gibco, #14175) before injecting 100 μL containing 5×10^6 cells subcutaneously in the flanks of female SCID beige mice (Charles River, Germany). Tumor growth was monitored regularly post cell inoculation and animals were randomized into treatment groups (n=6) with a mean tumor volume of about 130 mm^3. The ADCs were administered intravenously (iv) once at the start of treatment at 2.5 mg/kg or at 3.3 mg/kg in combination with venetoclax which was administered orally (po) daily (qd) at 50 mg/kg. Doses were adjusted to individual mouse body weights. The iv dose volume was 10 ml/kg and each ADC was dissolved in 0.9% (w/v) NaCl in water. Tumor volume data on day 10 post treatment were analyzed statistically using one way ANOVA post hoc Tukey's multiple comparisons test (Indigo Software). Results are presented as mean±SEM. As a measure of efficacy the % T/C value is calculated on day 10 according to:
(Δtumor volume^treated/Δtumor volume^control)*100
Tumor regression was calculated according to:
−(Δtumor volume^treated/tumor volume^treated at start)*100
Where Δtumor volumes represent the mean tumor volume on the evaluation day minus the mean tumor volume at the start of the experiment.

[4] abbreviates: 2.5 mg/kg i.v. once + Venetoclax 50 mg/kg p.o. qd.
Setting [5] is: female SCID beige mice, 2.5 mg/kg i.v. once + Venetoclax 50 mg/kg p.o. qd.
Setting [6] is: 3.3 mg/kg i.v. once + Venetoclax 50 mg/kg p.o. qd.

Marks after values point to notes of the source that are not given here.

Chain of Mcl-1 protein (Q07820 whole entry): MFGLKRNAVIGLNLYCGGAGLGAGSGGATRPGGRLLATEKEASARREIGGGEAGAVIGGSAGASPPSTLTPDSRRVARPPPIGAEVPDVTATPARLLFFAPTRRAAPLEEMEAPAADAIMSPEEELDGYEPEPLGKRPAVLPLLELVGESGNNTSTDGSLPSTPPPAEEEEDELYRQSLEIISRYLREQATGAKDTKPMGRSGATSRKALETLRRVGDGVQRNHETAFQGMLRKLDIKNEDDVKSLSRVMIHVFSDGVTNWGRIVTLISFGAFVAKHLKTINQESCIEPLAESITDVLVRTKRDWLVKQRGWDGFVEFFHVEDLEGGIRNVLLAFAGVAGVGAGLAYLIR

As a reminder, the IC50 is the point on the concentration scale where inhibition reaches its midpoint. Lower therefore signals inhibition by little substance. Regarding `Cc1c(-c2c(-c3ccc(F)cc3)sc3ncnc(O[C@H](Cc4ccccc4OCc4ccnn4CC(F)(F)F)C(=O)O)c23)ccc(OCCN2CCN(C)CC2)c1Cl` (atropisomer, axis not shown) [C12, (2R)-2-{[(5Sa)-5-{3-chloro-2-methyl-4-[2-(4-methylpiperazin-1-yl)ethoxy]phenyl}-6-(4-fluorophenyl)thieno[2,3-d]pyrimidin-4-yl]oxy}-3-(2-{[1-(2,2,2-trifluoroethyl)-1H-pyrazol-5-yl]methoxy}phenyl)propanoic Acid], in test [1], the half-inhibitory concentration (IC50) turned out to be 5.9 nM.

`COc1ccccc1-c1nccc(COc2ccccc2C[C@@H](Oc2ncnc3sc(-c4ccc(F)c(O)c4)c(-c4ccc(OCCN5CC[N+](C)(CCCS(=O)(=O)[O-])CC5)c(Cl)c4C)c23)C(=O)O)n1` [C2, (2R)-2-[(5Sa)-5-[3-chloro-2-methyl-4-[2-[4-methyl-4-(3-sulfopropyl)piperazin-4-ium-1-yl]ethoxy]phenyl]-6-(4-fluoro-3-hydroxy-phenyl)thieno[2,3-d]pyrimidin-4-yl]oxy-3-[2-[[2-(2-methoxyphenyl)pyrimidin-4-yl]methoxy]phenyl]propanoic acid]: the concentration for half-maximal inhibition (IC50) is 2.6 nM in test [1] and 8510 nM in test [2] (Homo sapiens).

On to `COc1ccccc1-c1nccc(COc2ccccc2C[C@@H](Oc2ncnc3sc(-c4ccc(F)cc4)c(-c4ccc(OCCN5CCNCC5)c(Cl)c4C)c23)C(=O)O)n1` [C3, (2R)-2-[(5Sa)-5-[3-chloro-2-methyl-4-(2-piperazin-1-ylethoxy)phenyl]-6-(4-fluorophenyl)thieno[2,3-d]pyrimidin-4-yl]oxy-3-[2-[[2-(2-methoxyphenyl)pyrimidin-4-yl]methoxy]phenyl]propanoic acid], for which the IC50 came out at 0.948 nM in test [1] and 42 nM in test [2] (Homo sapiens).

As to `Cc1c(-c2c(-c3ccc(F)cc3)sc3ncnc(OC(Cc4ccccc4OCc4ccnc(-c5ccc(CP(=O)(O)O)cc5)n4)C(=O)O)c23)ccc(OCCN2CCNCC2)c1Cl` [C4, (2R)-2-[(5Sa)-5-[3-chloro-2-methyl-4-(2-piperazin-1-ylethoxy)phenyl]-6-(4-fluorophenyl)thieno[2,3-d]pyrimidin-4-yl]oxy-3-[2-[[2-[4-(phosphonomethyl)phenyl]pyrimidin-4-yl]methoxy]phenyl]propanoic acid], the IC50 amounted to 2.6 nM in test [1] and 3210 nM in test [2] (Homo sapiens).

In test [1], `Cc1c(-c2c(-c3ccc(F)cc3)sc3ncnc(O[C@H](Cc4ccccc4OCc4ccnc(-c5ccccc5CO)n4)C(=O)O)c23)ccc(OCCN2CCN(C)CC2)c1Cl` [C6, (2R)-2-{[(5Sa)-5-{3-chloro-2-methyl-4-[2-(4-methylpiperazin-1-yl)ethoxy]phenyl}-6-(4-fluorophenyl)thieno[2,3-d]pyrimidin-4-yl]oxy}-3-[2-({2-[2-(hydroxymethyl)phenyl]pyrimidin-4-yl}methoxy)phenyl]propanoic acid] had an IC50 of 1.18 nM.

Take `CC#Cc1sc2ncnc(O[C@H](Cc3ccccc3OCc3ccnc(-c4ccccc4OC)n3)C(=O)O)c2c1-c1ccc(OCCN2CCN(C)CC2)c(Cl)c1CC` [C7, (2R)-2-[(5Sa)-5-[3-chloro-2-ethyl-4-[2-(4-methylpiperazin-1-yl)ethoxy]phenyl]-6-prop-1-ynyl-thieno[2,3-d]pyrimidin-4-yl]oxy-3-[2-[[2-(2-methoxyphenyl)pyrimidin-4-yl]methoxy]phenyl]propanoic Acid]: the IC50 in test [1] came out at 2.6 nM; in test [2] (Homo sapiens), 1.88 nM.

With `Cc1c(-c2c(-c3ccc(F)cc3)sc3ncnc(O[C@H](Cc4ccccc4OCc4ccnc(-c5cccc(OS(=O)(=O)O)c5)n4)C(=O)O)c23)ccc(OCCN2CCN(C)CC2)c1Cl` [C8, (2R)-2-[(5Sa)-5-[3-chloro-2-methyl-4-[2-(4-methylpiperazin-1-yl)ethoxy]phenyl]-6-(4-fluorophenyl)thieno[2,3-d]pyrimidin-4-yl]oxy-3-[2-[[2-(3-sulfooxyphenyl)pyrimidin-4-yl]methoxy]phenyl]propanoic acid], the IC50 in test [1] was 3 nM; in test [2] (Homo sapiens), 574 nM.

Regarding `Cc1c(-c2c(-c3ccc(F)cc3)sc3ncnc(O[C@H](Cc4ccccc4OCc4ccnc(-c5cccc(S(=O)(=O)O)c5)n4)C(=O)O)c23)ccc(OCCN2CCN(C)CC2)c1Cl` [C9, (2R)-2-{[(5Sa)-5-{3-chloro-2-methyl-4-[2-(4-methylpiperazin-1-yl)ethoxy]phenyl}-6-(4-fluorophenyl)thieno[2,3-d]pyrimidin-4-yl]oxy}-3-(2-{[2-(3-sulfophenyl)pyrimidin-4-yl]methoxy}phenyl)propanoic acid], the IC50 amounted to 2.5 nM in test [1] and 2270 nM in test [2] (Homo sapiens).

Turning to `COc1ccccc1-c1nccc(COc2ccccc2C[C@@H](Oc2ncnc3sc(-c4ccc(F)c(OCC(F)(F)F)c4)c(-c4ccc(OCCN5CCN(C)CC5)c(Cl)c4C)c23)C(=O)O)n1` [C10, (2R)-2-[(5Sa)-5-[3-chloro-2-methyl-4-[2-(4-methylpiperazin-1-yl)ethoxy]phenyl]-6-[4-fluoro-3-(2,2,2-trifluoroethoxy)phenyl]thieno[2,3-d]pyrimidin-4-yl]oxy-3-[2-[[2-(2-methoxyphenyl)pyrimidin-4-yl]methoxy]phenyl]propanoic Acid], the 50% inhibitory concentration (IC50) in test [1] is 3.4 nM; in test [2] (Homo sapiens) it was 13.5 nM.

On to `COc1ccccc1-c1nccc(COc2ccccc2C[C@@H](Oc2ncnc3sc(-c4cc(N)c(F)c(F)c4)c(-c4ccc(OCCN5CCN(C)CC5)c(Cl)c4C)c23)C(=O)O)n1` [C13, (2R)-2-{[(5Sa)-6-(3-amino-4,5-difluorophenyl)-5-{3-chloro-2-methyl-4-[2-(4-methylpiperazin-1-yl)ethoxy]phenyl}thieno[2,3-d]pyrimidin-4-yl]oxy}-3-(2-{[2-(2-methoxyphenyl)pyrimidin-4-yl]methoxy}phenyl)propanoic acid], for which the IC50 came to 2.2 nM in test [1] and 3.76 nM in test [2] (Homo sapiens).

As to `COc1c(O)cccc1-c1nccc(COc2ccccc2C[C@@H](Oc2ncnc3sc(-c4ccc(F)cc4)c(-c4ccc(OCCN5CCN(C)CC5)c(Cl)c4C)c23)C(=O)O)n1` [C14, (2R)-2-{[(5Sa)-5-{3-chloro-2-methyl-4-[2-(4-methylpiperazin-1-yl)ethoxy]phenyl}-6-(4-fluorophenyl)thieno[2,3-d]pyrimidin-4-yl]oxy}-3-(2-{[2-(3-hydroxy-2-methoxyphenyl)pyrimidin-4-yl]methoxy}phenyl)propanoic Acid], the 50% inhibitory concentration (IC50) in test [1] stood at 0.84 nM; in test [2] (Homo sapiens), 2.61 nM.

Turning to `COCCOCCOCCOCCOCCOCCOCCOCCOCCOCCOCCOCCC(=O)N(C)Cc1cc(NC(=O)[C@H](CCCNC(N)=O)NC(=O)[C@@H](NC(=O)CCOCCN2C(=O)CC(C)C2=O)C(C)C)ccc1C[N+]1(C)CCN(CCOc2ccc(-c3c(-c4ccc(F)cc4)sc4ncnc(O[C@H](Cc5ccccc5OCc5ccnc(-c6ccccc6OC)n5)C(=O)O)c34)c(C)c2Cl)CC1` (stereo partly shown) [CD74-L32-P1], the “T/C (%)” value in test [3] (setting [4]) is 4*^$ %. For the same compound, the “ΔTumor volume (mm^3)” value in test [3] (setting [5]) was 38 mm^3.

As for `COCCOCCOCCOCCOCCOCCOCCOCCOCCOCCOCCOCCOCCOCCOCCOCCn1cc(COCc2cc(NC(=O)[C@H](CCCNC(N)=O)NC(=O)[C@@H](NC(=O)CCOCCN3C(=O)CC(C)C3=O)C(C)C)ccc2C[N+]2(C)CCN(CCOc3ccc(-c4c(-c5ccc(F)cc5)sc5ncnc(O[C@H](Cc6ccccc6OCc6ccnc(-c7ccccc7OC)n6)C(=O)O)c45)c(C)c3Cl)CC2)nn1` (stereo partly shown) [CD74-L34-P1], the entries for the “T/C (%)” value in test [3] (setting [4]) and in test [3] (setting [6]) were 40* % and 17*^$ %, respectively. The entries for the “ΔTumor volume (mm^3)” value in test [3] (setting [6]) and in test [3] (setting [5]) were 170 mm^3 and 401 mm^3, respectively.

Turning to “(2R)-2-{[(5Sa)-5-{3-chloro-2-methyl-4-[2-(4-methylpiperazin-1-yl)ethoxy]phenyl}-6-(4-fluorophenyl)thieno[2,3-d]pyrimidin-4-yl]oxy}-3-(2-{[2-(4-hydroxyphenyl)pyrimidin-4-yl]methoxy}phenyl)propanoic Acid [C5]”, the IC50 in test [1] amounted to 4.05 nM; in test [2], 4.08 nM.
